The values below come from ChEMBL document CHEMBL5042533, “Structural Optimization and Structure-Activity Relationship Studies of 6,6-Dimethyl-4-(phenylamino)-6H-pyrimido[5,4-b][1,4]oxazin-7(8H)-one Derivatives as A New Class of Potent Inhibitors of Pan-Trk and Their Drug-Resistant Mutants” (J Med Chem, 2022).

In data set [1] the test system is BaF3. The data set is described as follows: Inhibition of TrkA phosphorylation in mouse BaF3 cells expressing CD74 fused TrkA incubated for 6 hrs by Western blot analysis. The data set is classed as cell-based. The following applies: dose 3-300 nM. For orientation: A western blot detects proteins with antibodies after separation by electrophoresis.
For data set [2], the system named is BaF3. The data set can be described thus: Inhibition of AKT phosphorylation in mouse BaF3 cells expressing CD74 fused TrkA incubated for 6 hrs by Western blot analysis. The data set is classed as cell-based. The conditions noted are these: dose 3-300 nM.
A further data set has as its target T1, Ephrin type-A receptor 8 (Homo sapiens, UniProt P29322).
T1 sequence (P29322 whole entry): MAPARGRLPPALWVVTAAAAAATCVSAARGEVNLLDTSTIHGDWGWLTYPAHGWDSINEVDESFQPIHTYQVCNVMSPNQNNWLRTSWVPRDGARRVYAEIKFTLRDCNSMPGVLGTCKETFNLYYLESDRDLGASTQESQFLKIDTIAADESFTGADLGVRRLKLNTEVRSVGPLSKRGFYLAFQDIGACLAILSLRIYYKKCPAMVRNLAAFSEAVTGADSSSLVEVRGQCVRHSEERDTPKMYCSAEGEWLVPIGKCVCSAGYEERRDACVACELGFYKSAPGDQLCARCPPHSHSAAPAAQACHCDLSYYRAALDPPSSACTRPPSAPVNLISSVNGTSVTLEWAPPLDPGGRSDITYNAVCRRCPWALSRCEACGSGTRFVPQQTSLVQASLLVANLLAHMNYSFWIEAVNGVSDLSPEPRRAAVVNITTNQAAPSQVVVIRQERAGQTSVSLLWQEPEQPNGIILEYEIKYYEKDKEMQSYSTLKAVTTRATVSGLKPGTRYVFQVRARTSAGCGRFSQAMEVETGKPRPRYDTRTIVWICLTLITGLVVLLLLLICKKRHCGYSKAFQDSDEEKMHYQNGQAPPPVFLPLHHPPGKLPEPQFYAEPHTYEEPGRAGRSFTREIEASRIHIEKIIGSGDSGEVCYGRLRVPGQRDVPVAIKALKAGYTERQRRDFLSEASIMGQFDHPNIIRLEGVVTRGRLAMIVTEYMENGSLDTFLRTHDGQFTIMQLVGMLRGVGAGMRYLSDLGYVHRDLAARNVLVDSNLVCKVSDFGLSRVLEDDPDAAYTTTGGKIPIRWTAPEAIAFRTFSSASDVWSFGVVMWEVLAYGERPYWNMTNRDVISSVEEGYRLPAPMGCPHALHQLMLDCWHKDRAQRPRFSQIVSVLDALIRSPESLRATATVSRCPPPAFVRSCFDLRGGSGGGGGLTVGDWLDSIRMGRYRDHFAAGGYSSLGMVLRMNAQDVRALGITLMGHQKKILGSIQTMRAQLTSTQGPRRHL
The data set is described as follows: Inhibition of human EphA8 in presence of ATP by radiometric assay.

In data set [3] the target is Tyrosine-protein kinase Fes/Fps (Homo sapiens, UniProt P07332). The data set is described as follows: Inhibition of human FES in presence of ATP by radiometric assay.
In data set [4] the target is Tyrosine-protein kinase FRK (Homo sapiens, UniProt P42685). The data set is described as follows: Inhibition of human PTK5 in presence of ATP by radiometric assay.
Data set [5] concerns the target T2, Tyrosine-protein kinase receptor TYRO3 (Homo sapiens, UniProt Q06418).
T2 sequence (Q06418 whole entry): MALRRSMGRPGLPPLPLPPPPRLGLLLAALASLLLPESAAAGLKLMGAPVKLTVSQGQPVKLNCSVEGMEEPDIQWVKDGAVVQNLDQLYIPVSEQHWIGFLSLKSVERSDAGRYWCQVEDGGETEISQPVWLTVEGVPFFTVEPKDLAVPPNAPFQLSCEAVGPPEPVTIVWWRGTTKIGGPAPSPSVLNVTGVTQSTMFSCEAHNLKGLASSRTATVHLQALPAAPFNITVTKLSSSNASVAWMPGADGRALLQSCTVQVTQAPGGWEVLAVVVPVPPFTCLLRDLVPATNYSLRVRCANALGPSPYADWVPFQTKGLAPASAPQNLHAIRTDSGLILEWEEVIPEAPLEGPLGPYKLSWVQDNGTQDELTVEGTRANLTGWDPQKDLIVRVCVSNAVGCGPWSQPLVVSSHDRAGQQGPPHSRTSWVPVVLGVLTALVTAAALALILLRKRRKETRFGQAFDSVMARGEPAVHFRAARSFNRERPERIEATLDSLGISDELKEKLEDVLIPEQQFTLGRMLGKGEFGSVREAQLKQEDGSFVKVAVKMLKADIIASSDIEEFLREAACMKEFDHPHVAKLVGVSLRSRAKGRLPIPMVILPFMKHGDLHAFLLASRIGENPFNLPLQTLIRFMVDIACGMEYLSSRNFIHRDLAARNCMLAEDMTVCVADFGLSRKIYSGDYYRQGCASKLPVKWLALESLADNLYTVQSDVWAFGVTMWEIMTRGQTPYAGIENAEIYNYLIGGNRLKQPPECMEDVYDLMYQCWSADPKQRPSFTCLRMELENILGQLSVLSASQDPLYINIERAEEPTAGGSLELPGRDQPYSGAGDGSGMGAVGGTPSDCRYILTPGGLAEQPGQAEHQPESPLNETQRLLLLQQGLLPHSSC
The data set can be described thus: Inhibition of human RSE in presence of ATP by radiometric assay.

Data set [6] is described as follows: AUC(0 to t) in Sprague-Dawley rat at 5 mg/kg, iv measured up to 24 hrs by HPLC method. The data set is classed as ADME, organism-based. Set-up: route intravenous, dose 5 mg/kg, time <=24. The conditions noted are these: in vivo.
Data set [7] in a line: Tmax in Sprague-Dawley rat at 5 mg/kg, iv measured up to 24 hrs by HPLC method. The data set is classed as ADME, organism-based. The conditions noted are these: in vivo.
A short description of data set [8]: Cmax in Sprague-Dawley rat at 5 mg/kg, iv measured up to 24 hrs by HPLC method. The following applies: in vivo. Also noted: route intravenous, dose 5 mg/kg, time <=24. In kind it is ADME, organism-based.
The test system of data set [9] is BaF3. The data set can be described thus: Antitumour activity against mouse BaF3 cells expressing TEL fused TrkA allografted in NOD-SCID mouse assessed as reduction in tumor volume administered intravenously once daily for 10 days and measured every 2 or 3 days. In kind it is functional. The following applies: dose 5-20 mg/kg, time 10.0 day.
Data set [10] in a line: Toxicity in NOD-SCID mouse allografted with mouse BaF3 cells expressing TEL fused TrkA assessed as body weight loss at 5 to 20 mg/kg, iv measured every 2 or 3 days for 10 days. The data set is classed as organism-based. The conditions noted are these: in vivo, 240 h, dose 5-20 mg/kg, time 10 day.
The nature of data set [11]: Toxicity in NOD-SCID mouse assessed as histological changes in lung at 5 to 20 mg/kg, iv measured after 10 days by H and E staining based microscopic analysis. The data set is classed as organism-based. The following applies: in vivo, 240 h, dose 5-20 mg/kg, time 10 day.
In data set [12] the test system is BaF3. The data set can be described thus: In vivo inhibition of Trk signalling in NOD-SCID mouse allografted with mouse BaF3 cells expressing TEL fused TrkC G623R mutant assessed as reduction in p-Trk level at 5 to 20 mg/kg, iv qd measured after 10 days by IHC staining based analysis. In kind it is functional, organism-based. The conditions noted are these: dose 5-20 mg/kg, time 10.0 day.

The test system of data set [13] is BaF3. The data set is described as follows: Downregulation of TrkC protein expression in mouse BaF3 cells expressing TEL fused TrkC G623R mutant incubated for 6 hrs by Western blot analysis. In kind it is functional, cell-based.
The test system of data set [14] is BaF3. The data set can be described thus: Downregulation of TrkA protein expression in mouse BaF3 cells expressing TEL fused TrkA incubated for 6 hrs by Western blot analysis. In kind it is functional, cell-based.
In data set [15] the test system is BaF3. The data set can be described thus: cells. The following applies: Mus musculus, BaF3, 72 h.
Description: Cytotoxicity against mouse BaF3 cells expressing TEL fused TrkC assessed as inhibition of cell growth incubated for 3 days by CCK-8 assay
Data set [16] has as its system BaF3. The data set can be described thus: cells. The conditions noted are these: Mus musculus, BaF3, 72 h. This is another data set of the same source.

A word on the IC50: it is the concentration at which inhibition is half-maximal. By AUC(0-t) is commonly meant exposure summed from dosing to a finite time, without extrapolation to infinity. The Tmax is the time from dosing to the highest level. What is called Cmax is the peak of the concentration-time curve.

Active and inactive are the calls of the source. No cut-off for these calls is given here.

Sequence of Tyrosine-protein kinase Fes/Fps (P07332 whole entry): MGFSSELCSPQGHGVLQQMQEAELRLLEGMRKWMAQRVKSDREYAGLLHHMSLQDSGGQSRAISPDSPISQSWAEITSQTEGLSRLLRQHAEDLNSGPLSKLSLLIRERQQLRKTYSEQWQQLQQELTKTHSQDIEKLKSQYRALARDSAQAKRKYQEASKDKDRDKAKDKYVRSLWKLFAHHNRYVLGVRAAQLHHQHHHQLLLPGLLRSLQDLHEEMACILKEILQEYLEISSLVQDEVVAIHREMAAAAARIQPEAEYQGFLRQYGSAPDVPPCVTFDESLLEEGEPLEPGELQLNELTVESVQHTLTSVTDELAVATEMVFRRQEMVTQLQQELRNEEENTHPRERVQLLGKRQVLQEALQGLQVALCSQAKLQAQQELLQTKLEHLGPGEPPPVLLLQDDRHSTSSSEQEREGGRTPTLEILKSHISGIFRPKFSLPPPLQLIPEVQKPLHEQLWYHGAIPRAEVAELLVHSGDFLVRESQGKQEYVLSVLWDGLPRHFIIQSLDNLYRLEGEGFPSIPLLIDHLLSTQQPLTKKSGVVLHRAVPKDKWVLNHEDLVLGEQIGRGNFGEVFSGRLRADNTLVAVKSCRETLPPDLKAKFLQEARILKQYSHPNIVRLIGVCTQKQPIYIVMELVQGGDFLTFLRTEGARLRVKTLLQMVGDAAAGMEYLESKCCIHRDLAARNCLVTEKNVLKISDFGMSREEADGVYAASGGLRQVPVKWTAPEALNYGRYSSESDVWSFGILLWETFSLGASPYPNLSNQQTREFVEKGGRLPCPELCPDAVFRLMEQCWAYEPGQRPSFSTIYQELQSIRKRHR
Sequence of Tyrosine-protein kinase FRK (P42685 whole entry): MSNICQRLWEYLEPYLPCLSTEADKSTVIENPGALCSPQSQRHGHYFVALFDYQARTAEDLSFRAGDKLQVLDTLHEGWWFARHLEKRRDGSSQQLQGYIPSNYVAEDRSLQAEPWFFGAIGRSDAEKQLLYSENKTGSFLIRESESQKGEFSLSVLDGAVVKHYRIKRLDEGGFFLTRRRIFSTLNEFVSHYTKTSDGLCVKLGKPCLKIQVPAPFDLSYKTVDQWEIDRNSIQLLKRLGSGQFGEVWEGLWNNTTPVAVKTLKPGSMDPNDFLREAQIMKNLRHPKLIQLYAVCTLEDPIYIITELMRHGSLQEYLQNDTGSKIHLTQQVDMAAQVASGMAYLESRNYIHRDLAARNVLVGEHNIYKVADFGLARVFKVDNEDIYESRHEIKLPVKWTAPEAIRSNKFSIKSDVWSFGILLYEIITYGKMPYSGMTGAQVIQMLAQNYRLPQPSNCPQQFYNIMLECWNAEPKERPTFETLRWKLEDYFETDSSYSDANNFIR

Regarding `Cc1cc(NC(=O)Nc2cc(C(C)(C)C)nn2-c2ccc(Cl)cc2)ccc1Nc1ncnc2c1OC(C)(C)C(=O)N2`, the inhibition entry in the data set with BaF3 [1], in the data set with BaF3 [2] and with BaF3 [12] was “Active” each time. Moreover, the IC50 on Ephrin type-A receptor 8 worked out at 0.101 µM; in data set [3], 0.269 µM; in data set [4] it was 0.032 µM; in data set [5], 0.138 µM; in the data set with BaF3 [15], 0.013 µM; in the data set with BaF3 [16], 0.001 µM. In data set [6], this molecule came in with an AUC(0-t) at 24 h of 17900 ng·h/mL. The time to peak (Tmax) in data set [7] is 4.8 min. In addition, in [8], the Cmax was determined as 21300 ng/mL. The results for the Activity entry (in the data set on BaF3 [9]; in data set [10]; in data set [11]) were “Dose-Dependent Effect”, “Non-Toxic” and “Non-Toxic”, respectively. Besides, the result in the data set on BaF3 [13] and in the data set on BaF3 [14] was Active.
